Converted amounts (≈) assume the structure as drawn. Counter-ions that a name gives are not always drawn.
How the values were obtained:
[1] = test system: Mycobacterium smegmatis (ATCC607); experiment: In-vitro anti-bacterial activity against strain M. smegmatis ATCC607 (Alamar Blue growth inhibition); format: cell-based; details: 90% inhibitory concentration for bacterial growth, 48 hours at 37° C.; for IC90: Mycolicibacterium smegmatis, read-out: IC90 (μg/ml) MSM 607
Procedure: D.1. In-Vitro Method for Testing Compounds for Anti-Bacterial Activity Against Strain M. Smegmatis ATCC607.
Flat-bottom, sterile 96-well plastic microtiter plates were filled with 180 μl of sterile deionized water, supplemented with 0.25% BSA. Subsequently, stock solutions (7.8× final test concentration) of compounds were added in 45 μl volumes to a series of duplicate wells in column 2 so as to allow evaluation of their effects on bacterial growth. Serial five-fold dilutions (45 μl in 180 μl) were made directly in the microtiter plates from column 2 to 11 using a customised robot system (Zymark Corp., Hopkinton, Mass.). Pipette tips were changed after every 3 dilutions to minimize pipetting errors with high hydrophobic compounds. Untreated control samples with (column 1) and without (column 12) inoculum were included in each microtiter plate. Approximately 250 CFU per well of bacteria inoculum, in a volume of 100 in 2.8× Mueller-Hinton broth medium, was added to the rows A to H, except column 12. The same volume of broth medium without inoculum was added to column 12 in row A to H. The cultures were incubated at 37° C. for 48 hours in a humidified 5% CO2 atmosphere (incubator with open air valve and continuous ventilation). At the end of incubation, two days after inoculation, the bacterial growth was quantitated fluorometrically. Therefore Alamar Blue (10×) was added to all wells in a volume of 20 and plates were incubated for another 2 hours at […]
The fluorescence was read in a computer-controlled fluorometer (Cytofluor, Biosearch) at an excitation wavelength of 530 nm and an emission wavelength of 590 nm (gain 30). The percentage growth inhibition achieved by the compounds was calculated according to standard methods and expressed as IC90 […] which defines the 90% inhibitory concentration for bacterial growth.

[2] = test system: Staphylococcus aureus (ATCC29213); experiment: Microtitre plate assay, IC90 for bacterial growth, Staphylococcus aureus strain; format: cell-based; details: 90% inhibitory concentration for bacterial growth, 24 hours at 37° C.; for IC90: read-out: IC90 (μg/ml) STA B29213
Procedure: D.2. In-Vitro Method for Testing Compounds for Anti-Bacterial Activity Against a Non-Mycobacterial Strain
Preparation of Bacterial Suspensions for Susceptibility Testing:
The bacteria used in this study were grown overnight in flasks containing 100 ml Mueller-Hinton Broth (Becton Dickinson—cat. no. 275730) in sterile de-ionized water, with shaking, at 37° C. Stocks (0.5 ml/tube) were stored at −70° C. until use. Bacteria titrations were performed in microtiter plates to detect the TCID50, in which TCID50 represents the dilution that gives rise to bacterial growth in 50% of inoculated cultures. In general, an inoculum level of approximately 100 TCID50 was used for susceptibility testing.
Anti Bacterial Susceptibility Testing: IC90 Determination
Flat-bottom, sterile 96-well plastic microtiter plates were filled with 180 μl of sterile deionized water, supplemented with 0.25% BSA. Subsequently, stock solutions (7.8× final test concentration) of compounds were added in 45 μl volumes in column 2 Serial five-fold dilutions (45 μl in 180 μl) were made directly in the microtiter plates from column 2 to reach column 11. Untreated control samples with (column 1) and without (column 12) inoculum were included in each microtiter plate. Depending on the bacteria type, approximately 10 to 60 CFU per well of bacteria inoculum (100 TCID50), in a volume of 100 μl in 2.8× Mueller-Hinton broth medium, was added to the rows A to H, except column 12. The same volume of broth medium without inoculum was added to column 12 in row A to H. The cultures were incubated at 37° C. for 24 hours under a normal atmosphere (incubator with open air valve and continuous ventilation). At the end of incubation, one day after inoculation, the bacterial growth was quantitated fluorometrically. Therefore resazurin (0.6 mg/ml) was added in a volume of 20 μl to all wells 3 hours after inoculation, and the plates were re-incubated overnight. A change in colour from blue to pink indicated the growth of bacteria. The fluorescence was read in a computer-controlled fluorometer (Cytofluor Biosearch) at an excitation wavelength of 530 nm and an emission wavelength of 590 nm. The % growth inhibition achieved by the compounds was calculated according to standard methods. The IC90 (expressed in μg/ml) was defined as the 90% inhibitory concentration for bacterial growth. The results are shown in Table 7 for an assay using a Staphylococcus aureus strain.

SMILES	IC90 (μg/ml) MSM 607 [1] [µg/mL]	IC90 (μg/ml) STA B29213 [2] [µg/mL]	other results
CS(=O)(=O)c1ccc2[nH]c(=O)c(C(c3ccccc3)C3(O)CCNCC3)cc2c1 (centres unmarked) (as salt: HCl) [Compound 100]	–	–	melting point: > 260 °C
COc1nc2ccc(C(C)C)cc2cc1C(c1ccc(Cl)cc1)C1(O)CCN(CCc2ccccc2)CC1.O=C(O)/C=C/C(=O)O (racemic) [Compound 91]	0.63	3.16	–
COc1nc2ccc(-c3cccnc3)cc2cc1C(c1ccc(Cl)cc1)C1(O)CCNCC1.O=C(O)/C=C/C(=O)O (racemic) [Compound 93]	3.05	10.83	–
COc1nc2ccc(-c3cccnc3)cc2cc1C(c1ccc(Cl)cc1)C1(O)CCN(C)CC1 (racemic) [Compound 94]	6.70 (≈ 14.1 µM)	14.99 (≈ 31.6 µM)	–
COc1nc2ccc(Br)cc2cc1C(c1ccccc1Cl)C1(O)CCNCC1.O=C(O)/C=C/C(=O)O (racemic) [Compound 95]	6.06	15.22	–
COc1nc2ccc(-c3cccnc3)cc2cc1C(c1ccccc1Cl)C1(O)CCNCC1.O=C(O)/C=C/C(=O)O (racemic) [Compound 97]	4.08	16.25	–
COc1nc2ccc(Br)cc2cc1C(c1cccc(Cl)c1)C1(O)CCNCC1.O=C(O)/C=C/C(=O)O (racemic) [Compound 98]	7.83	15.62	–
COc1nc2ccc(S(C)(=O)=O)cc2cc1C(c1ccccc1)C1(O)CCNCC1.O=C(O)/C=C/C(=O)O (racemic) [Compound 99]	>13.31	>13.31	–
COc1nc2ccc(Br)cc2cc1C(c1ccc(Cl)cc1)C1(O)CCN(Cc2cccc(C#N)c2)CC1.O=C(O)/C=C/C(=O)O (racemic) [Compound 105]	14.49	14.49	–
OC1(C(c2ccc(Cl)cc2)c2cc3cc(Br)ccc3nc2N2CCOCC2)CCN(CCc2ccccc2)CC1 (centres unmarked) [Compound 1]	–	–	melting point: 158 °C; IC90 [2]: 6.81 µg/mL (≈ 11 µM)
COc1nc2ccc(Br)cc2cc1C(c1ccc(Cl)cc1)C1(O)CCN(Cc2ccccc2)CC1 (centres unmarked) [Compound 6]	–	–	IC90 [1]: > 13.9 µg/mL; IC90 [2]: > 13.9 µg/mL
O=c1[nH]c2ccc(Br)cc2cc1C(c1ccc(Cl)cc1)C1(O)CCN(Cc2ccccc2)CC1 (centres unmarked) [Compound 10]	–	–	melting point: 244 °C; IC90 [2]: 4.27 µg/mL (≈ 7.94 µM)
C=Cc1ccc2nc(OC)c(C(c3ccc(Cl)cc3)C3(O)CCN(Cc4ccccc4)CC3)cc2c1 (centres unmarked) [Compound 11]	–	–	melting point: 195 °C; IC90 [2]: > 39.8 µg/mL
COc1nc2ccccc2cc1C(c1ccccc1)C1(O)CCNCC1 (centres unmarked) [Compound 12]	–	–	melting point: 119 °C; IC90 [2]: > 22 µg/mL
COc1nc2ccc(C#N)cc2cc1C(c1ccc(Cl)cc1)C1(O)CCN(Cc2ccccc2)CC1 (centres unmarked) [Compound 13]	–	–	melting point: 199 °C; IC90 [2]: 25.6 µg/mL (≈ 51.3 µM)
COc1nc2ccc(Br)cc2cc1C(c1ccc(S(C)(=O)=O)cc1)C1(O)CCNCC1 (centres unmarked) [Compound 19]	–	–	IC90 [1]: > 16.1 µg/mL; IC90 [2]: > 16.1 µg/mL
COc1nc2ccc(Br)cc2cc1C(c1ccc(S(C)(=O)=O)cc1)C1(O)CCN(Cc2ccccc2)CC1 (centres unmarked) [Compound 20]	–	–	IC90 [1]: 3.76 µg/mL (≈ 6.31 µM); IC90 [2]: 7.5 µg/mL (≈ 12.6 µM)
COc1nc2ccc(Br)cc2cc1C(c1ccccc1)C1(O)CCN(C)CC1 (centres unmarked) [Compound 28]	11.09 (≈ 25.1 µM)	>27.85	–
COc1nc2ccc(Br)cc2cc1C(c1ccc(Cl)cc1)C1(O)CCN(CCc2ccccc2)CC1.O=C(O)/C=C/C(=O)O (centres unmarked) [Compound 47]	4.49	17.86	–
COc1nc2ccc(Br)cc2cc1C(c1ccc(C#N)cc1)C1(O)CCN(Cc2ccccc2)CC1 (centres unmarked) [Compound 58]	–	–	melting point: 220 °C; IC90 [2]: 8.47 µg/mL (≈ 15.6 µM)

SMILES	IC90 (μg/ml) MSM 607 [1] [µg/mL]	IC90 (μg/ml) STA B29213 [2] [µg/mL]	other results
COc1nc2ccc(Br)cc2cc1C(c1cccc(C)c1)C1(O)CCN(Cc2ccccc2)CC1 (centres unmarked) [Compound 61]	3.16 (≈ 5.95 µM)	15.85 (≈ 29.8 µM)	–
COc1nc2ccc(Br)cc2cc1C(c1ccc(Cl)cc1)C1(O)CCN(Cc2ccccc2C)CC1 (centres unmarked) [Compound 62]	3.16 (≈ 5.58 µM)	15.85 (≈ 28 µM)	–
COc1nc2ccc(C#N)cc2cc1C(c1ccc(Cl)cc1)C1(O)CCN(Cc2ccc(C)cc2)CC1 (centres unmarked) [Compound 76]	–	>21.99	–
O=C(O)/C=C/C(=O)O.OC1(C(c2ccc(Cl)cc2)c2cc3cc(Br)ccc3nc2N2CCOCC2)CCN(Cc2ccccc2)CC1 (centres unmarked) [Compound 77]	–	>47.23	–
O=c1[nH]c2ccc(-c3cccnc3)cc2cc1C(c1ccc(Cl)cc1)C1(O)CCN(Cc2ccccc2)CC1 (centres unmarked) [Compound 78]	–	13.47 (≈ 25.1 µM)	–
O=c1[nH]c2ccc(Br)cc2cc1C(c1ccc(Cl)cc1)C1(O)CCNCC1 (centres unmarked) [Compound 79]	–	28.25 (≈ 63.1 µM)	–
COc1ccc2nc(OC)c(C(c3ccc(Cl)cc3)C3(O)CCN(Cc4ccccc4)CC3)cc2c1.O=C(O)/C=C/C(=O)O (centres unmarked) [Compound 81]	–	10.05	–
COc1nc2ccc(Br)cc2cc1C(C1Oc2ccccc2O1)C1(O)CCN(Cc2ccccc2)CC1.O=C(O)/C=C/C(=O)O (centres unmarked) [Compound 85]	–	34.54	–
COc1nc2ccc(C(F)(F)F)cc2cc1C(c1ccc(Cl)cc1)C1(O)CCN(Cc2ccccc2)CC1.O=C(O)/C=C/C(=O)O (centres unmarked) [Compound 86]	–	>43.95	–
O=C(O)/C=C/C(=O)O.OC1(C(c2ccc(Cl)cc2)c2cc3cc(Br)ccc3nc2N2CCCCC2)CCN(Cc2ccccc2)CC1 (centres unmarked) [Compound 87]	–	>48.13	–
COc1nc2ccc(Cl)cc2cc1C(c1ccc(Br)cc1)C1(O)CCN(Cc2ccccc2)CC1 (centres unmarked) [Compound 88]	3.16 (≈ 5.73 µM)	3.98 (≈ 7.21 µM)	–
COc1nc2ccc(C(C)C)cc2cc1C(c1ccc(Cl)cc1)C1(O)CCN(Cc2ccccc2)CC1.O=C(O)/C=C/C(=O)O (centres unmarked) [Compound 90]	–	>41.36	–
Cn1c(=O)c(C(c2ccc(Cl)cc2)C2(O)CCN(Cc3ccccc3)CC2)cc2cc(Br)ccc21 (centres unmarked) [Compound 96]	6.19 (≈ 11.2 µM)	13.86 (≈ 25.1 µM)	–
CS(=O)(=O)c1ccc2[nH]c(=O)c(C(c3ccccc3)C3(O)CCNCC3)cc2c1 (centres unmarked) [Compound 100]	–	–	IC90 [1]: > 11.3 µg/mL; IC90 [2]: > 11.3 µg/mL
Cl.O=c1[nH]c2ccc(Br)cc2cc1C(c1cccc(Cl)c1)C1(O)CCNCC1 (centres unmarked) [Compound 101]	12.04	>12.04	–
CCn1c(=O)c(C(c2ccc(Cl)cc2)C2(O)CCNCC2)cc2cc(Br)ccc21.O=C(O)/C=C/C(=O)O (centres unmarked) [Compound 102]	11.58	14.58	–
Cl.N#Cc1ccc(C(c2cc3cc(Br)ccc3[nH]c2=O)C2(O)CCNCC2)cc1 (centres unmarked) [Compound 103]	>11.93	>11.93	–
COc1nc2ccc(C(N)=O)cc2cc1C(c1ccc(Cl)cc1)C1(O)CCN(Cc2ccccc2)CC1 (centres unmarked) [Compound 107]	12.96 (≈ 25.1 µM)	>12.96	–
COc1nc2ccc(C(=O)N(C)C)cc2cc1C(c1ccc(Cl)cc1)C1(O)CCN(Cc2ccccc2)CC1 (centres unmarked) [Compound 108]	>13.67	>13.67	–
